In brackets after ≈: the same amount, converted by molar mass. Residues, ends and D or L forms follow the SMILES beside them.
What was measured:
Candida species = conditions: ref Szerencsés et al., 2021; cited from earlier work
Excerpt: (§1) NCR169 is another NCR peptide essential for differentiation of nitrogen fixing bacteroids in Medicago species ([Horváth et al., 2015]). This 38-amino-acid peptide contains four cysteines that are critical for its symbiotic function in planta.

Cryptococcus neoformans = conditions: ref Szerencsés et al., 2025; cited from earlier work
Excerpt: as §1

Proteinase K = Proteinase K (Parengyodontium album, UniProt P06873); test: Proteinase K treatment of peptide-DNA samples (recovery of SYBR Gold fluorescence); conditions: Proteinase K 1 mg/ml added at 27 min to peptide-DNA-SYBR Gold samples, 10 µM peptide
Proteinase K, sequence (P06873 106-384): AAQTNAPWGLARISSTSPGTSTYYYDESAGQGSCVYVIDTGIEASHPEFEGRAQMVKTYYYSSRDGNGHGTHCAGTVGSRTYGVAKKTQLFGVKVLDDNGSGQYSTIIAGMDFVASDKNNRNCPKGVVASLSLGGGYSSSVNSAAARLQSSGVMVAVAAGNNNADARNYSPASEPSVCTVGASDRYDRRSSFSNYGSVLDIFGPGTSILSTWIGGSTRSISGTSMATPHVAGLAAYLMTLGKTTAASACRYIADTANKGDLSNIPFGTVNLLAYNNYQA
Method: In addition, DNA-binding kinetics were monitored in real time using a Hidex Sense plate reader at room temperature in three independent experiments. Reaction mixtures contained 100 ng of HindIII-digested lambda phage DNA in 1 × SYBR Gold (Thermo Scientific), either without peptide or with 10 µM of NCR169C17–38 (2.74041 µg), NCR169 (4.56545 µg), NCR169_16–27 (1.56597 µg), or NCR169_17–27 (1.40279 µg). Peptides were added either at the start (0 min) or at 14 min. Fluorescence from DNA-bound SYBR Gold was measured every 3 min (excitation 490 nm, emission 535 nm). At 27 min, proteinase K (1 mg/ml; 100 µg final) was added to peptide-treated samples to assess the effect on peptide–DNA binding. Experiments were done in three biological replicates.
The DNA-binding kinetics were quantified using SYBR Gold fluorescence (Fig. 3.D). […] To test if peptide removal would recover the DNA–SYBR Gold fluorescence to control values, Proteinase K was added at 27 min to all reactions. […] In contrast, fluorescence values in the NCR169 samples remained unchanged, while those of NCR169C17–38 or NCR169_17–27 increased slightly and gradually to the same limited extent.

[1] = system: circular plasmid DNA (pDEST-GBKT7); test: Gel retardation assay; type: binding; conditions: 250 ng circular plasmid DNA, peptide 50 µM to 0.8 µM
Method: The DNA- and RNA-binding abilities of NCR169C17–38, its parental peptide NCR169, and two shorter derivatives (NCR169_16–27 and NCR169_17–27) were initially evaluated using a gel retardation assay. In this setup, 100 ng of either E. coli genomic DNA or total RNA was incubated with 10 µM or 100 µM of each peptide for 30 min at 37 °C. Reaction mixtures, along with untreated controls, were then subjected to agarose gel electrophoresis, and the resulting nucleic acid migration patterns were examined for changes indicative of peptide binding. The interaction of NCR169C17–38 with circular plasmid DNA (pDEST-GBKT7) was also characterized using peptide concentrations ranging from 50 µM to 0.8 µM, prepared by 2-fold serial dilution. Experiments were done in three biological replicates.
To explore whether the NCR169C17–38 peptide has secondary intracellular targets of the bacterial cells beyond the primary membrane disruption, we tested its possible interaction with nucleic acids in gel retardation assays. A pilot experiment indicated strong DNA-binding capacity, prompting us to include the parental NCR169 peptide and the shorter derivatives NCR169_16–27 and NCR169_17–27 for comparison (Fig. 3.). […] Similar results were obtained with total E. coli RNA (Fig. 3.B). […]

[2] = system: Escherichia coli (ATCC 8739); type: cell-based; conditions: ATCC 8739
Excerpt: The Gram-positive strains Enterococcus faecalis (ATCC 29212), Staphylococcus aureus (HNCMO112011), and Listeria monocytogenes (ATCC 19111), and the Gram-negative strains Pseudomonas aeruginosa (ATCC 27853), Escherichia coli (ATCC 8739), Salmonella enterica (ATCC 13076), Klebsiella pneumoniae (NCTC 13440), and Acinetobacter baumannii (ATCC 17978) were obtained from ATCC (United States) and NCTC (National Collection of Type Cultures – England).
Minimal bactericidal concentrations (MBC) of peptides and reference antibiotics were determined in 20 mM potassium phosphate buffer (PPB, pH 7.4) and Mueller–Hinton broth (MHB) as described by ([Jenei et al., 2020]). Briefly, bacterial cultures were grown to mid-log phase, washed, adjusted to OD₆₀₀ = 0.1 (∼10⁷ CFU/mL), added 10 μl of it into 100 μl mixture and incubated in 96-well plates with 2-fold serial dilutions of peptides or antibiotics. After incubation at 37 °C with shaking, bacterial viability was assessed by plating 5 μL aliquots on LB agar. MBC was defined as the lowest concentration yielding no colony growth. […]
Three biological replicates were treated at OD600 = 0.2 with a final concentration of 1.6 µM NCR169C17–38 peptide for 20 min, while the control samples were treated with the same amount of water for 20 min. […] Quality and quantity was detected using 2200 TapeStation (Agilent) and Qubit RNA BR Assay […]

## CC[C@H](C)[C@H](NC(=O)[C@H](CCCCN)NC(=O)[C@H](Cc1ccccc1)NC(=O)[C@H](CC(C)C)NC(=O)[C@@H]1CCCN1C(=O)[C@H](CCCCN)NC(=O)[C@H](CCCCN)NC(=O)[C@H](CO)NC(=O)[C@@H](N)CCCCN)C(=O)N[C@@H](Cc1c[nH]c2ccccc12)C(=O)N[C@@H](CCCCN)C(=O)N[C@@H](CS)C(=O)N[C@H](C(=O)N[C@@H](CCC(=O)O)C(=O)N[C@@H](CC(N)=O)C(=O)N[C@H](C(=O)N[C@@H](CS)C(=O)N[C@H](C(=O)N[C@@H](CC(C)C)C(=O)N[C@@H](Cc1c[nH]c2ccccc12)C(=O)N[C@@H](Cc1ccc(O)cc1)C(=O)N[C@@H](CCCCN)C(N)=O)C(C)C)C(C)C)C(C)C [NCR169C17–38] (H-KSKKPLFKIWKCVENVCVLWYK-NH2; N-terminus assumed)
Candida species
  antifungal activity: potent antifungal activity
Cryptococcus neoformans
  antifungal activity: potent antifungal activity
Proteinase K
  sensitivity to Proteinase K treatment: only partial sensitivity
[1]
  plasmid DNA binding, gel retardation: complete retention of DNA in the well at higher concentrations
[2]
  MBC: 6.2 µM (≈ 17 µg/mL)
